We go through 2 molecules from patent publication US11345912B2, “Directed evolution of multivalent glycopeptides that tightly bind to target proteins” (Brandeis University, priority 2013, dated 2022).

Bounds are passed on as bounds.

This test addresses 2G12. As to the kind of experiment: Binding curve and KD determination of 2G12-glycopeptide interaction (radiolabeled glycopeptide, protein G magnetic bead capture, scintillation counting). The method in brief: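 Radiolabeled glycopeptide (<4 pmol) from PURE-system translation with click glycosylation was incubated with 100 nM 2G12 at room temperature. Complexes were captured on protein G beads and eluted at 70° C. Bound and unbound fractions were counted by scintillation, run at least in triplicate, and KD derived from binding curves.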

As to `CC[C@H](C)[C@H](NC(=O)[C@H](CC(=O)O)NC(=O)[C@@H]1CCCN1C(=O)[C@H](C)NC(=O)[C@H](C)NC(=O)[C@H](CO)NC(=O)[C@@H](NC(=O)[C@@H]1CCCN1C(=O)[C@H](Cc1c[nH]cn1)NC(=O)[C@H](CCc1cn(C2CCC(OC3O[C@H](CO[C@H]4O[C@H](CO[C@H]5O[C@H](CO)[C@@H](O)[C@H](O)[C@@H]5O[C@H]5O[C@H](CO)[C@@H](O)[C@H](O)[C@@H]5O)[C@@H](O)[C@H](O[C@H]5O[C@H](CO)[C@@H](O)[C@H](O)[C@@H]5O[C@H]5O[C@H](CO)[C@@H](O)[C@H](O)[C@@H]5O)[C@@H]4O)[C@@H](O)[C@H](O[C@H]4O[C@H](CO)[C@@H](O)[C@H](O)[C@@H]4O[C@H]4O[C@H](CO)[C@@H](O)[C@H](O)[C@@H]4O[C@H]4O[C@H](CO)[C@@H](O)[C@H](O)[C@@H]4O)[C@@H]3O)CC2)nn1)NC(=O)[C@H](C)NC(=O)[C@H](Cc1c[nH]cn1)NC(=O)[C@H](Cc1ccccc1)NC(=O)[C@H](Cc1ccc(O)cc1)NC(=O)[C@H](Cc1c[nH]cn1)NC(=O)[C@H](C)NC(=O)[C@H](CO)NC(=O)[C@H](CCCNC(=N)N)NC(=O)[C@H](CO)NC(=O)[C@H](CC(C)C)NC(=O)[C@H](CCc1cn(C2CCC(OC3O[C@H](CO[C@H]4O[C@H](CO[C@H]5O[C@H](CO)[C@@H](O)[C@H](O)[C@@H]5O[C@H]5O[C@H](CO)[C@@H](O)[C@H](O)[C@@H]5O)[C@@H](O)[C@H](O[C@H]5O[C@H](CO)[C@@H](O)[C@H](O)[C@@H]5O[C@H]5O[C@H](CO)[C@@H](O)[C@H](O)[C@@H]5O)[C@@H]4O)[C@@H](O)[C@H](O[C@H]4O[C@H](CO)[C@@H](O)[C@H](O)[C@@H]4O[C@H]4O[C@H](CO)[C@@H](O)[C@H](O)[C@@H]4O[C@H]4O[C@H](CO)[C@@H](O)[C@H](O)[C@@H]4O)[C@@H]3O)CC2)nn1)NC(=O)[C@H](CC(C)C)NC(=O)[C@H](Cc1ccccc1)NC(=O)[C@H](C)NC(=O)[C@@H]1CCCN1C(=O)[C@H](CO)NC(=O)[C@@H]1CCCN1C(=O)[C@H](CS)NC(=O)[C@H](C)NC(=O)[C@@H](NC(=O)[C@H](CCC(N)=O)NC(=O)[C@H](CCc1cn(C2CCC(OC3O[C@H](CO[C@H]4O[C@H](CO[C@H]5O[C@H](CO)[C@@H](O)[C@H](O)[C@@H]5O[C@H]5O[C@H](CO)[C@@H](O)[C@H](O)[C@@H]5O)[C@@H](O)[C@H](O[C@H]5O[C@H](CO)[C@@H](O)[C@H](O)[C@@H]5O[C@H]5O[C@H](CO)[C@@H](O)[C@H](O)[C@@H]5O)[C@@H]4O)[C@@H](O)[C@H](O[C@H]4O[C@H](CO)[C@@H](O)[C@H](O)[C@@H]4O[C@H]4O[C@H](CO)[C@@H](O)[C@H](O)[C@@H]4O[C@H]4O[C@H](CO)[C@@H](O)[C@H](O)[C@@H]4O)[C@@H]3O)CC2)nn1)NC=O)[C@@H](C)O)[C@@H](C)O)C(=O)N[C@@H](CO)C(=O)NCC(=O)N[C@@H](CO)C(=O)NCC(=O)N[C@@H](CO)C(=O)N[C@@H](CC(C)C)C(=O)NCC(=O)N[C@@H](Cc1c[nH]cn1)C(=O)N[C@@H](Cc1c[nH]cn1)C(=O)N[C@@H](Cc1c[nH]cn1)C(=O)N[C@@H](Cc1c[nH]cn1)C(=O)N[C@@H](Cc1c[nH]cn1)C(=O)N[C@@H](Cc1c[nH]cn1)C(=O)N[C@@H](CCCNC(=N)N)C(=O)N[C@@H](CC(=O)O)C(=O)N[C@@H](Cc1ccc(O)cc1)C(=O)N[C@@H](CCCCN)C(=O)N[C@@H](CC(=O)O)C(=O)N[C@@H](CC(=O)O)C(=O)N[C@@H](CC(=O)O)C(=O)N[C@@H](CC(=O)O)C(=O)N[C@@H](CCCCN)C(=O)O` (stereo partly drawn) [Clone 6E, XQTACPSPAFLXLSRSAHYFHAXHPTSAAPDIS], the equilibrium dissociation constant (Kd) (Table 4, ribosomally translated radiolabeled glycopeptide with His6/FLAG tag, room temperature, fit Fbound=(Fmax[2G12])/(KD+[2G12]), error = standard error of fit) is above 128 nM.

As to `CC[C@H](C)[C@H](NC(=O)[C@H](CCC(N)=O)NC(=O)[C@H](CCCCN)NC(=O)[C@H](CC(C)C)NC(=O)[C@H](Cc1c[nH]cn1)NC(=O)[C@H](CC(C)C)NC(=O)[C@@H](NC(=O)[C@H](CC(=O)O)NC(=O)[C@H](CCc1cn(C2CCC(OC3O[C@H](CO[C@H]4O[C@H](CO[C@H]5O[C@H](CO)[C@@H](O)[C@H](O)[C@@H]5O[C@H]5O[C@H](CO)[C@@H](O)[C@H](O)[C@@H]5O)[C@@H](O)[C@H](O[C@H]5O[C@H](CO)[C@@H](O)[C@H](O)[C@@H]5O[C@H]5O[C@H](CO)[C@@H](O)[C@H](O)[C@@H]5O)[C@@H]4O)[C@@H](O)[C@H](O[C@H]4O[C@H](CO)[C@@H](O)[C@H](O)[C@@H]4O[C@H]4O[C@H](CO)[C@@H](O)[C@H](O)[C@@H]4O[C@H]4O[C@H](CO)[C@@H](O)[C@H](O)[C@@H]4O)[C@@H]3O)CC2)nn1)NC=O)[C@@H](C)O)C(=O)NCC(=O)NCC(=O)N[C@@H](CCc1cn(C2CCC(OC3O[C@H](CO[C@H]4O[C@H](CO[C@H]5O[C@H](CO)[C@@H](O)[C@H](O)[C@@H]5O[C@H]5O[C@H](CO)[C@@H](O)[C@H](O)[C@@H]5O)[C@@H](O)[C@H](O[C@H]5O[C@H](CO)[C@@H](O)[C@H](O)[C@@H]5O[C@H]5O[C@H](CO)[C@@H](O)[C@H](O)[C@@H]5O)[C@@H]4O)[C@@H](O)[C@H](O[C@H]4O[C@H](CO)[C@@H](O)[C@H](O)[C@@H]4O[C@H]4O[C@H](CO)[C@@H](O)[C@H](O)[C@@H]4O[C@H]4O[C@H](CO)[C@@H](O)[C@H](O)[C@@H]4O)[C@@H]3O)CC2)nn1)C(=O)N1CCC[C@H]1C(=O)N[C@@H](CC(N)=O)C(=O)N[C@@H](CO)C(=O)N[C@H](C(=O)N[C@H](C(=O)N[C@@H](CCC(N)=O)C(=O)N[C@@H](CCC(N)=O)C(=O)N[C@@H](CC(=O)O)C(=O)N[C@H](C(=O)N[C@@H](CCCNC(=N)N)C(=O)N[C@@H](CCc1cn(C2CCC(OC3O[C@H](CO[C@H]4O[C@H](CO[C@H]5O[C@H](CO)[C@@H](O)[C@H](O)[C@@H]5O[C@H]5O[C@H](CO)[C@@H](O)[C@H](O)[C@@H]5O)[C@@H](O)[C@H](O[C@H]5O[C@H](CO)[C@@H](O)[C@H](O)[C@@H]5O[C@H]5O[C@H](CO)[C@@H](O)[C@H](O)[C@@H]5O)[C@@H]4O)[C@@H](O)[C@H](O[C@H]4O[C@H](CO)[C@@H](O)[C@H](O)[C@@H]4O[C@H]4O[C@H](CO)[C@@H](O)[C@H](O)[C@@H]4O[C@H]4O[C@H](CO)[C@@H](O)[C@H](O)[C@@H]4O)[C@@H]3O)CC2)nn1)C(=O)N[C@H](C(=O)N[C@@H](CO)C(=O)N[C@H](C(=O)N1CCC[C@H]1C(=O)N[C@@H](Cc1ccc(O)cc1)C(=O)N[C@H](C(=O)N[C@@H](Cc1ccc(O)cc1)C(=O)N[C@H](C(=O)N[C@@H](Cc1c[nH]c2ccccc12)C(=O)N1CCC[C@H]1C(=O)NCC(=O)N[C@@H](CO)C(=O)NCC(=O)N[C@@H](CO)C(=O)N[C@@H](CC(C)C)C(=O)NCC(=O)N[C@@H](Cc1c[nH]cn1)C(=O)N[C@@H](Cc1c[nH]cn1)C(=O)N[C@@H](Cc1c[nH]cn1)C(=O)N[C@@H](Cc1c[nH]cn1)C(=O)N[C@@H](Cc1c[nH]cn1)C(=O)N[C@@H](Cc1c[nH]cn1)C(=O)N[C@@H](CCCNC(=N)N)C(=O)N[C@@H](CC(=O)O)C(=O)N[C@@H](Cc1ccc(O)cc1)C(=O)N[C@@H](CCCCN)C(=O)N[C@@H](CC(=O)O)C(=O)N[C@@H](CC(=O)O)C(=O)N[C@@H](CC(=O)O)C(=O)N[C@@H](CC(=O)O)C(=O)N[C@@H](CCCCN)C(=O)O)[C@@H](C)O)[C@@H](C)O)[C@@H](C)CC)[C@@H](C)O)C(C)C)[C@@H](C)O)[C@@H](C)CC` (stereo partly drawn) [Clone 10F3-C15S], the “Fmax [%]” value (Table 6 mutational analysis, radioactive bead binding assay) is on record as 63%. For the setting “Table 6 mutational analysis, radioactive bead binding assay, ribosomally translated”, the Kd amounted to 2.91 nM.

One may read the Kd as the concentration at which binding is half-saturated.
